Nine compounds from ChEMBL document CHEMBL1201862, “PubChem BioAssay data set” (2004) can be followed below.

The test system of assay [1] is HEK293. Nature of the assay: cells. It counts as functional, cell-based. To be noted: Homo sapiens.
Assay [2] concerns the target T1, Nuclear receptor subfamily 0 group B member 1 (Homo sapiens, UniProt P51843).
T1 sequence (P51843 whole entry): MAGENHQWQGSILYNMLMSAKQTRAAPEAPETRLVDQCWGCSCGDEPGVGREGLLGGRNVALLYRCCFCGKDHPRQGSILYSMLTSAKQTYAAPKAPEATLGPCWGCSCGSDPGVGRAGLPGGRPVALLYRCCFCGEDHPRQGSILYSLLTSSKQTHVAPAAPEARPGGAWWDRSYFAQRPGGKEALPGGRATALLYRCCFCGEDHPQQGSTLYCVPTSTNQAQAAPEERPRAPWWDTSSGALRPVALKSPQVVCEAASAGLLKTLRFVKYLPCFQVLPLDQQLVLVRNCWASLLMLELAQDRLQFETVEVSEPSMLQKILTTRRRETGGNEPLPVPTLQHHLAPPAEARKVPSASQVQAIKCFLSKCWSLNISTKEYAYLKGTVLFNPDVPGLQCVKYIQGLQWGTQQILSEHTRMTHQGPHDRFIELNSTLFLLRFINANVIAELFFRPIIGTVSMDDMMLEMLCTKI
Nature of the assay: Luminescence-based cell-based high throughput dose response assay for inhibitors of the orphan nuclear receptor subfamily 0, group B, member 1 (DAX1; NR0B1). [Related pubchem assays (depositor defined):AID504766, AID504790]. It counts as functional.

In assay [3] the target is T2, Sentrin-specific protease 8 (Homo sapiens, UniProt Q96LD8).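 Note: luminescence read-out of SENP8 inhibition, dose-response confirmation following an ultra-high-throughput screen.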
T2 sequence (Q96LD8 whole entry): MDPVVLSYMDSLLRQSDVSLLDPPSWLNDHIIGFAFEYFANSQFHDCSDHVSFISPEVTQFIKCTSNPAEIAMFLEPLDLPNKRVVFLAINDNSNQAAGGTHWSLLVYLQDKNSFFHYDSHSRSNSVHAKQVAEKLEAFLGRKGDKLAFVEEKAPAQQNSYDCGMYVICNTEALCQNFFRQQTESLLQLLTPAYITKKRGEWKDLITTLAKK
The format is functional.

For assay [4], the target named is T3, Sentrin-specific protease 7 (Homo sapiens, UniProt Q9BQF6).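 Note: Luminescence-based dose-response confirmation of ultra-high-throughput screening hits, measuring inhibition of SENP7.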
T3 sequence (Q9BQF6 whole entry): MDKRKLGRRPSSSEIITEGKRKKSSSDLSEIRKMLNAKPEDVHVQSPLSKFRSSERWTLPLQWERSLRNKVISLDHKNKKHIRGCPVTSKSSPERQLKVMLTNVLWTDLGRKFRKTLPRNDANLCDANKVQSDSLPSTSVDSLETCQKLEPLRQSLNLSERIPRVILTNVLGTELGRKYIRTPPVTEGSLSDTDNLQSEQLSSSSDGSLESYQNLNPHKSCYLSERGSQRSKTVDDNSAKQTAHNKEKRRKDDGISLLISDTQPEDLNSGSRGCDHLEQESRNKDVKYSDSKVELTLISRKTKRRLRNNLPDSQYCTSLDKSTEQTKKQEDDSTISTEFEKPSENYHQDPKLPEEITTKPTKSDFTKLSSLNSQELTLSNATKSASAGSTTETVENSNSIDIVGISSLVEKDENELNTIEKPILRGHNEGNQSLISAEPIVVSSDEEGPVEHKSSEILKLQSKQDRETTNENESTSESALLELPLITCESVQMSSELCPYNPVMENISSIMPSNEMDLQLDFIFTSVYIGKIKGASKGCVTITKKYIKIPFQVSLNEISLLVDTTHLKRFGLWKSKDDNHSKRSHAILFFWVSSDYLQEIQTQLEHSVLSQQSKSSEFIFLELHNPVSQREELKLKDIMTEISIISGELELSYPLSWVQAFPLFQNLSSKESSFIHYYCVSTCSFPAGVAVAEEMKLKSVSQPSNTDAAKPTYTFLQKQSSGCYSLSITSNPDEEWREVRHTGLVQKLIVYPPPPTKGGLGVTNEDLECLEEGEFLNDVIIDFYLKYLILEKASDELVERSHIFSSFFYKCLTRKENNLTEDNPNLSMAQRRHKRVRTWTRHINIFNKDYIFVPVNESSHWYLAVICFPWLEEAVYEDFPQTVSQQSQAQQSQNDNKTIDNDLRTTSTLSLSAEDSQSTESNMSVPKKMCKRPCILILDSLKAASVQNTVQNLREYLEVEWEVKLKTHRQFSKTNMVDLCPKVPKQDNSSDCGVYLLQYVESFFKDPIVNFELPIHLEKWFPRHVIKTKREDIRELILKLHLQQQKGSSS
It counts as functional.

Assay [5] concerns the target T4, Sentrin-specific protease 6 (Homo sapiens, UniProt Q9GZR1).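 Note: Luminescence-based dose-response confirmatory assay of SENP6 inhibition, following up an ultra-high-throughput screen.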
T4 sequence (Q9GZR1 whole entry): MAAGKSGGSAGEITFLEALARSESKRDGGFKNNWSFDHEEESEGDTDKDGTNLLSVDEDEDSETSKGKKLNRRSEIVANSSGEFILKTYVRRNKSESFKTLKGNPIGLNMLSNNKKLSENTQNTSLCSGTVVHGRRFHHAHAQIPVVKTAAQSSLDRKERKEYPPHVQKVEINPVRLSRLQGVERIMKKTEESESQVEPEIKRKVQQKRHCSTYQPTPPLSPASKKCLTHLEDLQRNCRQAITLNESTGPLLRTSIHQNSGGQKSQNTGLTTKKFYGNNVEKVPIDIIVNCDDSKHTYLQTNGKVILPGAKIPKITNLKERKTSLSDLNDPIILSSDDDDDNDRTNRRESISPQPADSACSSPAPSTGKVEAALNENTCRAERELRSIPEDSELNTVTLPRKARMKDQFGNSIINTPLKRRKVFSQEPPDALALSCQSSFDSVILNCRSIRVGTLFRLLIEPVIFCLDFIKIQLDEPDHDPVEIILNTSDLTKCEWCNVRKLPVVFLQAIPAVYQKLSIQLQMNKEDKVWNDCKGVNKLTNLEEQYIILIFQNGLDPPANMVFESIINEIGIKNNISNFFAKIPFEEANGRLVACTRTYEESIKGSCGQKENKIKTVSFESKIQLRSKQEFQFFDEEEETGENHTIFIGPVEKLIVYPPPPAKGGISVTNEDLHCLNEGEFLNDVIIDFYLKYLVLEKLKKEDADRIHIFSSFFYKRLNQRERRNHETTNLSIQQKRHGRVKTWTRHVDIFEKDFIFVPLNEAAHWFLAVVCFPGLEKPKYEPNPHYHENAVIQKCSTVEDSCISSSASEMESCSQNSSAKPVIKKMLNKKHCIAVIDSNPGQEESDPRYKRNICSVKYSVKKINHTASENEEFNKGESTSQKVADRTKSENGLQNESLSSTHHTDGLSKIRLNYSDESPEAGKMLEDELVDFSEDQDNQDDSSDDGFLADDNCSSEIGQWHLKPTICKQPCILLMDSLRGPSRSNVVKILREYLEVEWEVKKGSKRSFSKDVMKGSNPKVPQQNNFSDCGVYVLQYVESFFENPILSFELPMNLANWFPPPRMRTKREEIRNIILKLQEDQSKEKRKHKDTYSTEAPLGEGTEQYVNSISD
The format is functional.

Assay [6] has as its system HeLa. The experiment in a line: ATP-based viability loss in HeLa cells – cell-based, CellTiter-Glo luminescence, cherry-pick samples, cytotoxicity control for MITF activator project, dose response (AID 540259). It counts as functional. As to conditions: Homo sapiens. (In general: ATP-based viability assays read luminescence as a measure of living cells.)
In assay [7] the target is T5, Caspase-3 (Homo sapiens, UniProt P42574).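 Note: Dose-response selectivity test against caspase-3 for candidate inhibitors of sentrin-specific proteases (SENPs).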
T5 sequence (P42574 whole entry): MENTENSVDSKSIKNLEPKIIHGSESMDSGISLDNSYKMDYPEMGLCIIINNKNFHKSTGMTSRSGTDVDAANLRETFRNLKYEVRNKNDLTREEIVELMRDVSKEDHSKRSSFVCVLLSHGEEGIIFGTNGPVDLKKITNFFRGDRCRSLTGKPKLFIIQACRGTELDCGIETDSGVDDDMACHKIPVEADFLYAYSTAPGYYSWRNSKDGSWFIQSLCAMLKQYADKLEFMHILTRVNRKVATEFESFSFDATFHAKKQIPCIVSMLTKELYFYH
It counts as functional.

Assay [8] addresses Voltage-gated inwardly rectifying potassium channel KCNH2 (Homo sapiens, UniProt Q12809). To be noted: Potency.
A short description of assay [9]: fluconazole-exposed Candida albicans growth modulators – fluorescence, retest, confirmation (AID 2467). The format is functional, cell-based.
Assay [10] is described as follows: NIH-3T3 fibroblast cytotoxicity, dose response, cytotoxicity control, cell-based, fluorescence, Alamar Blue, secondary assay (AID 2327).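 Note: NIH-3T3 mouse fibroblasts cultured with fluconazole at 8 µg/mL.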 It counts as functional. On the technique in general: The colour change of resazurin is a common sign of viable cells or microbes.
Assay [11] has as its target T6, Serine/threonine-protein phosphatase (Candida dubliniensis (strain CD36 / CBS 7987 / NCPF 3949 / NRRLY-17841) (Yeast), UniProt B9W6M3).
T6 sequence (B9W6M3 whole entry): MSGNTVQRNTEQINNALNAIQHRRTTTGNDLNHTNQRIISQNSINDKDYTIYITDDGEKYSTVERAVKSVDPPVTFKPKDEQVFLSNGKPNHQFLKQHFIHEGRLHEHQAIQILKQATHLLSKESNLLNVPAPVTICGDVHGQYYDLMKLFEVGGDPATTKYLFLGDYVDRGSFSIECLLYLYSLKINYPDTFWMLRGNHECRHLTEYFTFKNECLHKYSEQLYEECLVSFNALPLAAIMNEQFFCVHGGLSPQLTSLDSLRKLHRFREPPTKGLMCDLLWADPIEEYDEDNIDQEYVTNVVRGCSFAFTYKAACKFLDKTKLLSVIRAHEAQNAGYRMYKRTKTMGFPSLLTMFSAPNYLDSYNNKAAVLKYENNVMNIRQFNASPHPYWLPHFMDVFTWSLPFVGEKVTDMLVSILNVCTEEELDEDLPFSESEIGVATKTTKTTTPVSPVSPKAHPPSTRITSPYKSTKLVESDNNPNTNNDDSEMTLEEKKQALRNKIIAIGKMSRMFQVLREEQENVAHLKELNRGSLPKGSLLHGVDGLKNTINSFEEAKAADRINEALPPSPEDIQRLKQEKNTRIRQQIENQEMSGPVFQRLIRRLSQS
The experiment in a line: blockers of CaCl2-induced CDRE-lacZ signaling – S. cerevisiae, luminescence, secondary, dose response (AID 2388).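 Note: yeast reporter cells carrying a calcineurin-responsive lacZ construct stimulated with calcium chloride; luminescent beta-galactosidase reporter signal in whole cells rather than isolated phosphatase activity; potency for inhibition where a drop in reporter signal means calcineurin blockade.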 It counts as functional, cell-based.

Assay [12] concerns the target ATP-dependent molecular chaperone HSP82 (Candida albicans (strain WO-1) (Yeast), UniProt C4YTQ8). The experiment in a line: steroid-induced GRE reporter decrease in yeast – S. cerevisiae, luminescence, Hsp90 inhibitor project, dose response (AID 2400).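 Note: beta-galactosidase luminescence from glucocorticoid response element reporter as proxy for Hsp90 function; inhibitor potency where signal loss means Hsp90 inhibition.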 It counts as functional, cell-based.
Assay [13] concerns the target T7, Type-1 angiotensin II receptor (Homo sapiens, UniProt P30556).
T7 sequence (P30556 whole entry): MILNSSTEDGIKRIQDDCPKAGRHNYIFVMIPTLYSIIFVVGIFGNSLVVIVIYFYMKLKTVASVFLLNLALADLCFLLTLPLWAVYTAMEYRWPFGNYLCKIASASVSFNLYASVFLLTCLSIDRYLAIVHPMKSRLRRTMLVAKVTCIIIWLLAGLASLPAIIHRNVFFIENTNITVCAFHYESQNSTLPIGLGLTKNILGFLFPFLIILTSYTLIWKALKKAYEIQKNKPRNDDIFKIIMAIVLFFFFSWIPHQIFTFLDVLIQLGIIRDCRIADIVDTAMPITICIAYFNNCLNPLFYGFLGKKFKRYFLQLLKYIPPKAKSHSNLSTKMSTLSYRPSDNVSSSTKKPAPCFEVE
Nature of the assay: antagonism of angiotensin II type 1 receptor – cell-based, uHTS hits, selectivity assay for APJ receptor antagonist project, dose response (AID 463214).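 Note: antagonist potency against angiotensin II stimulated AT1 response.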 The format is functional.

Assay [14] addresses Beta-galactosidase (Escherichia coli, UniProt Q8VNN2). The experiment in a line: PubChem AID 485352. The format is functional.
A short description of assay [15]: viability of uninfected HEp-2 cells – cell-based, HTS, cytotoxicity control for RSV inhibitor project, dose response (AID 2410). It counts as functional. To be noted: human respiratory syncytial virus.
Assay [16] concerns Vero. The experiment in a line: viability of Vero cells under compound – cytotoxicity control for flavivirus capping enzyme inhibitors (AID 588742). The format is functional. As to conditions: Chlorocebus sabaeus.

As usually defined, the IC50 is the midpoint of a concentration-inhibition curve. The AC50 is the concentration at which the activity in the assay is half-maximal. One may read the EC50 as the concentration giving half of the maximal effect. A word on the CC50: it is the concentration giving 50% cytotoxicity.

Active and inactive are the calls of the source.

Chain of ATP-dependent molecular chaperone HSP82 (C4YTQ8 whole entry): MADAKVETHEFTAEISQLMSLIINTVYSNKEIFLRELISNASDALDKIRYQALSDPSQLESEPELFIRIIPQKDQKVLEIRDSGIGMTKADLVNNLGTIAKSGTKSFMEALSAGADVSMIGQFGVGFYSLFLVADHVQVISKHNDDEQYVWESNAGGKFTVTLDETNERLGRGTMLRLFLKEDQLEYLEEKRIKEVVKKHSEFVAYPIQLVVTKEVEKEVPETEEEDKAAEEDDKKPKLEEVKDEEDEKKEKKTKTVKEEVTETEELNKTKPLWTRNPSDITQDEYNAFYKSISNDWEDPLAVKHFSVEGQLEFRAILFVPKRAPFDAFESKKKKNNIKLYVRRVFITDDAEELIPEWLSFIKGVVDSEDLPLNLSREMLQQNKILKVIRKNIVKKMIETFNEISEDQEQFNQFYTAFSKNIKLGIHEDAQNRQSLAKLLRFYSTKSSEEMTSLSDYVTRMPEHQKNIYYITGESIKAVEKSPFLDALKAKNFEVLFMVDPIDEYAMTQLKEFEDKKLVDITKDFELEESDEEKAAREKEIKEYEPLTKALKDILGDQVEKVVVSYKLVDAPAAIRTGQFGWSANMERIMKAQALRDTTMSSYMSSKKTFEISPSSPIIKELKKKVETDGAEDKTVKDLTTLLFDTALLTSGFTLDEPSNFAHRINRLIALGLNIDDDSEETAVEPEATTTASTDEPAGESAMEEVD
Chain of Beta-galactosidase (Q8VNN2 whole entry): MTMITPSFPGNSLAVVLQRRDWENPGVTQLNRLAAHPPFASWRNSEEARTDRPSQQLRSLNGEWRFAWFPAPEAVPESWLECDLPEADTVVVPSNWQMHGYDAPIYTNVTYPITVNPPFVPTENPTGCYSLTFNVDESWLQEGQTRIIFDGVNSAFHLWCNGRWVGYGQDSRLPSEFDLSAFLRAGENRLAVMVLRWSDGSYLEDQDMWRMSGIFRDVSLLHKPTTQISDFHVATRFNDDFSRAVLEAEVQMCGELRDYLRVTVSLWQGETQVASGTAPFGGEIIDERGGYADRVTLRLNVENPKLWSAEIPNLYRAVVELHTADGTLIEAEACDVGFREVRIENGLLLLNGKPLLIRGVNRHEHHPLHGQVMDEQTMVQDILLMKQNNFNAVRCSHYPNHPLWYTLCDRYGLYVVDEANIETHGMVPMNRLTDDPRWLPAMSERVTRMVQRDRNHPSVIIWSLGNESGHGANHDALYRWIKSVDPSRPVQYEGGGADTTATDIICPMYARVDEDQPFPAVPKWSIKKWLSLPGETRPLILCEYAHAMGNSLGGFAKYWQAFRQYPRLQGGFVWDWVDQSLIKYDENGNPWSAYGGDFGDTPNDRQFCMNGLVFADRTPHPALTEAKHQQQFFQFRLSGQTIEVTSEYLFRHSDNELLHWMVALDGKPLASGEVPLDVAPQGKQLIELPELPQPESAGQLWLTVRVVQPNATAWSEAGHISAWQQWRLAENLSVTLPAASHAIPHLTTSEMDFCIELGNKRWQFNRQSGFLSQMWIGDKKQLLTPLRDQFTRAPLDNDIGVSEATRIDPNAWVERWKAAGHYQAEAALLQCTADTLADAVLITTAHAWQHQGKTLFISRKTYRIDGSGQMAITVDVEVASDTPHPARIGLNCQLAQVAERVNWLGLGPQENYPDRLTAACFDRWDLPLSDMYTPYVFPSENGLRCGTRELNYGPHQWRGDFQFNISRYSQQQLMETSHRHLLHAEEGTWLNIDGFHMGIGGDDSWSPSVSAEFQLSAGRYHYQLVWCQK
Chain of Voltage-gated inwardly rectifying potassium channel KCNH2 (Q12809 whole entry): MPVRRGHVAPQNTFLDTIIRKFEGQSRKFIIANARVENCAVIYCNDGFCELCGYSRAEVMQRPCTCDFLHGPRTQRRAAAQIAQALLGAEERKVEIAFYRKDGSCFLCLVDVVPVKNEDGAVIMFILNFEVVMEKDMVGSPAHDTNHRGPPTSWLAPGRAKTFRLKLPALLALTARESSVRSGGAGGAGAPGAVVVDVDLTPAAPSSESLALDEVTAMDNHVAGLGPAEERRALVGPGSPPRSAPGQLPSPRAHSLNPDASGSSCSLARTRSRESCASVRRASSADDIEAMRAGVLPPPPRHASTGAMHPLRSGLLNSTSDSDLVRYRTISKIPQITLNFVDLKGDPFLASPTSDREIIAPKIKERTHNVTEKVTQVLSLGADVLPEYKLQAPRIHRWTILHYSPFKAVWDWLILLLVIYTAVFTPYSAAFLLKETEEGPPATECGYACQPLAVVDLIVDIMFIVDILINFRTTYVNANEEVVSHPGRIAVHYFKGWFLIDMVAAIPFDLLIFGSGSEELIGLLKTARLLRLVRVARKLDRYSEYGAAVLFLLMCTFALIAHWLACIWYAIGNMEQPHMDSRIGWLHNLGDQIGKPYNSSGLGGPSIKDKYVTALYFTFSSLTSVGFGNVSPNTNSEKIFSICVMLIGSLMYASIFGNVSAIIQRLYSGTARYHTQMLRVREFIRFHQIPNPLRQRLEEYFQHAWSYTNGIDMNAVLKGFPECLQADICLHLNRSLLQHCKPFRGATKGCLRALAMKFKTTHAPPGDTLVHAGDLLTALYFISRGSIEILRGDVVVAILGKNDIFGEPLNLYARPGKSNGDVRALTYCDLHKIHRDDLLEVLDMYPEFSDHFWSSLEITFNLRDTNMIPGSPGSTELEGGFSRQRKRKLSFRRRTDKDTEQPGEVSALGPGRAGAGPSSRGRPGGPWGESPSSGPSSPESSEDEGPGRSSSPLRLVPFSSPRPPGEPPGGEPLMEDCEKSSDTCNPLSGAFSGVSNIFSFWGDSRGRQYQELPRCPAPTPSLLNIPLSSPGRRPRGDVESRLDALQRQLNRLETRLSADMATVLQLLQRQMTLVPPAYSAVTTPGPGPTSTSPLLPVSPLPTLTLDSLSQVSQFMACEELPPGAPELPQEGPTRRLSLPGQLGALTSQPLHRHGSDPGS

For the compound `CCOC(=O)c1nn(-c2ccc(Cl)cc2)cc1O`, the IC50 in assay [1] and in assay [2] was > 67.5 µM (inactive) throughout.

Regarding `Cc1ccc2c(c1N)C(=O)c1ccccc1C2=O`, the IC50 is > 100 µM (inactive) in [3], 4.33 µM (active) in [4], 42.3 µM (active) in [5] and 11.8 µM (active) in assay [7]. For the same compound, the AC50 in assay [6] is 36 µM (active); in [8], 35.5 µM (inconclusive).

Turning to `CCOc1ccc(-n2c(=O)[nH]c3sc4c(c3c2=O)CCCC4)cc1`, the IC50 in assay [1] and in assay [2] was > 67.6 µM (inactive) in each case.

With `COc1ccc(-n2nc(C(=O)NCC(=O)NCCC3=CCCCC3)c3ccccc3c2=O)c(OC)c1`, the EC50 was 0.469 µM (active) in [9], > 150 µM (inactive) in assay [10], > 180 µM (inactive) in [11] and > 150 µM (inactive) in assay [12].

Take `O=C(CN1C(=O)C2C3C=CC(C3)C2C1=O)OCC(=O)c1ccc(Cl)c([N+](=O)[O-])c1` (stereo unspecified): in assay [13], the IC50 is 14.3 µM (active). For the same compound, in assay [14], the EC50 is > 40 µM (inactive).

In the case of `O=C(CNc1ccccc1C(=O)O)c1ccccc1`, the IC50 in assay [13] is 7.51 µM (active). Besides, in assay [14], the EC50 was > 40 µM (inactive).

With `COc1ccccc1N1CCN(C(S)=Nc2ccc3nc(N4CCOCC4)cc(C)c3c2)CC1`, the CC50 in [15] is 39.1 µM (active); in assay [16], > 40 µM (active).

`C/C(=N\NC(=O)c1nn(C)cc1Br)c1ccncc1`: the IC50 in assay [1] and in assay [2] was > 67.6 µM (inactive) throughout.

On to `Cc1nn(-c2ccccc2)c(C)c1C(=O)OC/C(O)=C(\C#N)c1nc2ccccc2[nH]1`, for which the EC50 was 0.764 µM (active) in [9], > 150 µM (inconclusive) in [10], > 180 µM (inactive) in assay [11] and > 150 µM (inactive) in assay [12].
